“And” between values parts separate entries of the source, which are not always exact repeats. Identical values can stand only once. “Also recorded” adds a separate entry of the source.
Experiments:
[1] = Relaxivity measurements with CaCl2; format: physicochemical; settings: CaCl2, even at 3-fold excess of the dication
Protocol: (§1) Left: Relaxivity of Compound 1 in the presence of XCl2, where X=Zn, Ca, and Mg. All solutions were made in 100 mM KCl/100 mM HEPES at ph=7.4. Right: Relaxivity of Zn-1, 3:1 (Zn:Gd), following titration of EDTA.
(§2) To test the binding ability of the acetate ligands to Zn(II), relaxivity measurements of 1 were measured in the absence and presence of ZnCl2. The relaxitivity of 1 in HEPES buffer without zinc was 2.34 mM^−1 s^−1, as is typical for small molecule contrast agents for which q=0 (8). […] As ZnCl2 was added, the relaxivity increased to 5.3 mM^−1 s^−1 indicative of a q=1 complex (See FIG. 3, left). Similar studies were conducted using MgCl2 and CaCl2 to test for selectivity of the ligand for zinc over other dications known to have higher cellular concentrations and which have similar binding affinities for carboxylic acids. […] A competitive binding assay gave a dissociation constant of 2.38×10^−4 M for the Gd(III)-Zn(II) complex.

[2] = T1-weighted phantom MR images with Zn(II)
Protocol: (§3) A. Compound 1 selectivity. Images of a 1 mM solution of Compound 1 in HEPES buffer. (A) HEPES buffer only; (B) Compound 1; (C) Compound 1 with 1 mM ZnCl2; (D) Compound 1 with 1 mM MgCl2; (E) Compound 1 with 1 mM CaCl2. B. Compound 1 sensitivity. Images of a 1 mM solution of Compound 1 in HEPES buffer with varying zinc concentrations. (A) 0 μM Zn; (B) 50 μM Zn; (C) 100 μM Zn; (D) 500 μM Zn; (E) 1 mM Zn. (TR=100.0 ms, TE=14.3 ms, FOV=2.5/2.0 cm, data matrix=256×256. TR=repetition time; TE=echo time; FOV=field of view).
(§4) To evaluate the effectiveness of Compound 1 as an in vivo probe, the stability of Zn-Compound 1 was investigated. Using the commercially available fluorophore FluoZinTM-1 (Invitrogen), the binding constant of zinc can be determined by a competitive assay. Since the Zn(II)-binding regions of the dye and Compound 1 are identical, similar binding constants are to be expected. […] To confirm there was a measurable difference between zinc concentrations, T1 was measured on these same samples on a 14.1 T magnet and on a 1.4 T magnet.

[3] = T1-weighted phantom MR images with Mg(II); settings: 4.7 T magnet; 1 mM Compound 1 in HEPES, 1 mM MgCl2
Protocol: as §3, §4

[4] = Competitive binding assay with fluorophore FluoZin-1; settings: competitive assay against FluoZin-1; read-out: dissociation constant (Kd) of the Gd(III)-Zn(II) complex
Protocol: as §2, §4

[5] = Stability in 0.1 M phosphate buffer (relaxivity, ICP of supernatant); format: physicochemical
Protocol: Compound 1 was monitored for 24 hours in a 0.1 M phosphate buffer to determine its stability in solution. Due to the low solubility of GdPO4 (Ksp=10^−22.26 mol^2/L^2) any dissociation of gadolinium from Compound 1 will precipitate, causing a subsequent decrease in relaxivity which was not seen. A more accurate measurement of the amount of gadolinium dissociation can be made from centrifuging the samples and collecting aliquots of the supernatant for evaluation of gadolinium concentration via ICP.

[6] = Relaxivity measurements with MgCl2; format: physicochemical; settings: MgCl2, even at 3-fold excess of the dication
Protocol: as §1, §2

[7] = T1-weighted phantom MR images with Ca(II); settings: 4.7 T magnet; 1 mM Compound 1 in HEPES, 1 mM CaCl2
Protocol: as §3, §4

[8] = Relaxivity measurements in the absence and presence of ZnCl2; format: physicochemical
Protocol: as §1, §2
After 1 was left to equilibrate at 37° C. for 3 days with an excess of zinc, a relaxivity of 9.2 mM^−1 s^−1 was measured, indicating the species has a value of q=2. This measurement corresponds well to a structure proposed by embodiments of the present invention in which the pendant ligands have left the gadolinium for the zinc, leaving two open coordination sites for water to bind. […] Although an understanding of the mechanism is not necessary to practice the present invention and the present invention is not limited to any particular mechanism of action, in some embodiments, this is due to sequestration of Zn(II) by EDTA which leaves the carboxylic acids available to bind to Gd(III) and close the coordination sites (See FIG. 3, right). Adding excess EDTA had no effect on the relaxivity, providing that the Gd(III) ions are not sequestered by EDTA as expected given the high binding constant (˜10^16) for Gd-EDTA for which q=1.
Proton relaxivity measurements on Compound 1 were also performed while titrating with increasing amounts of Zn(II) up to 1:1.4 (Gd: Zn) equivalents. […] The observed linear dependence also rules out the possibility of a 2:1 (Gd:Zn) complex formation.

NIH/3T3 cells [9] = assay: Cell cytotoxicity, trypan blue staining; format: cell-based; set-up: cell viability: dose or concentration left out as unconfirmed
Protocol: (§5) The cell doubling time for NIH/3T3 cells is around 16 hours and one can see over twice as many cells at 24 hours than at 8 hours as one would expect, implying greater than 99% cell viability. B. Compound 1 is taken up at a constant rate for up to 8 hours.
(§6) Compound 1 was effectively taken up by NIH/3T3 cells at a constant rate for the first 8 hours of treatment. The maximal intracellular concentration of Compound 1 of approximately 10^−14 mol Gd/cell is achieved at 8 hours and maintained up to 24 hours (FIG. 6 B). NIH/3T3 cells were seeded at 10^5 cells per well in 24-well tissue culture plates with Dulbecco's modified Eagle's medium (DMEM) containing 10% bovine calf serum and incubated overnight in a 5% CO2 incubator at 37° C. The media was then changed and Compound 1 added at a concentration of 500 μM. After 2, 4, 8, and 24 hours, cells were washed three times with 1×PBS and exposed to 250 μL of 0.25% trypsin and harvested. Cells were diluted with an equal volume of 0.4% trypan blue and counted on a hemacytometer. For cellular uptake of Compound 1 into cells, cells were incubated with concentrated nitric acid at 70° C. for 3 hours. The dissolved cells were diluted into a 5 ml, solution with 3% nitric acid and 5 ppb of an indium internal standard. The concentration of Gd(III) was then determined using ICP-MS (induction coupled plasma mass spectrometry).

NIH/3T3 cells [10] = assay: Cellular uptake, Gd(III) by ICP-MS; format: cell-based; settings: 500 μM
Protocol: as §5, §6

[11] = Testing of further agents for Zn(II) detection/activation (method not described)
Excerpt: [drawing 1] wherein R═(CH2)n(n=1 or 2).

Cc1cccc(OCCCN2CCN(CC(=O)[O-])CCN(CC(=O)[O-])CCN(CC(=O)[O-])CC2)c1N(CC(=O)[O-])CC(=O)[O-].[Gd+3] [Compound 1]
change in relaxivity values [1]: no significant change | MR image intensity in the presence of Zn(II) ([2]; 4.7 T magnet, 1 mM Compound 1 in HEPES, 1 mM ZnCl2): increase in intensity | levels of Zn(II) that can be detected ([2]; in vitro MR images): hundreds of micromolar | visualization of difference between 100 μM and 500 μM zinc ([2]; phantom images, 1 mM Compound 1, varying zinc concentrations): easily visualize the difference | MR image difference with Mg(II) [3]: no discernible difference | Kd [4]: 238 µM and 240 µM | decrease in relaxivity (Gd dissociation/precipitation) ([5]; 0.1 M phosphate buffer, 24 hours): not seen | change in [Gd] of supernatant (ICP) ([5]; 0.1 M phosphate buffer, time-points up to 24 hours): no significant change | dissociation constant of the gadolinium complex ([5]; suggested from phosphate buffer stability): on the order of that seen for Gd-DO3A | change in relaxivity values [6]: no significant change | MR image difference with Ca(II) [7]: no discernible difference | relaxivity ([8]; HEPES buffer without zinc): 2.34 mM⁻¹ s⁻¹ | relaxivity ([8]; HEPES buffer, ZnCl2 added): 5.3 mM⁻¹ s⁻¹ | relaxivity ([8]; equilibrated at 37° C. for 3 days with an excess of zinc): 9.2 mM⁻¹ s⁻¹ | increase in relaxivity ([8]; in the presence of Zn(II)): > 100% | cell death (NIH/3T3 cells [9]; 0.5 mM, up to 24 hours, trypan blue staining): no observable cell death | cell viability (NIH/3T3 cells [9]; 24 hours): greater than 99% | cell proliferation (NIH/3T3 cells [9]; incubation with Compound 1 up to 24 hours): Normal proliferation; also recorded: proliferated exponentially at the expected rate | uptake rate (NIH/3T3 cells [10]; first 8 hours of treatment): constant rate | maximal intracellular concentration (NIH/3T3 cells [10]; achieved at 8 hours and maintained up to 24 hours): approximately 10^−14 mol Gd/cell

Cc1cccc(OCCN2CCN(CC(=O)[O-])CCN(CC(=O)[O-])CCN(CC(=O)[O-])CC2)c1N(CC(=O)[O-])CC(=O)[O-].[Gd+3] [second agent]
activation towards Zn(II) [11]: little activation

Source: patent US7906105B1, “Zinc-activated contrast agents” (Northwestern University, priority 2006, dated 2011)
